Measurements reported in patent US20240417397A1 (priority 2021, published 2024).

Tested on: Rice blast fungi (Pyricularia oryzae, MAFF101511)
Assay: microbe, parasite or virus in culture
Type: cell-based
Conditions: 72 h, read-out: Inhibition rate (%) of elongation length of fungal filaments

SMILES	inhibition at 500 ppm [%]
COc1n[nH]c(N2CCC(OC)CC2)c1C(F)(F)F [Example 9, 3-methoxy-5-(4-methoxypiperidin-1-yl)-4-trifluoromethyl-1H-pyrazole]	88
COc1n[nH]c(F)c1C(F)(F)F [Example 2, 3-fluoro-5-methoxy-4-trifluoromethylpyrazole]	95
